Source: patent US11285103B2, “Degradable hydrogel under physiological conditions” (priority 2015, dated 2022)
Numbered stars: 1 amine (or outer) side, 2 acyl side, 3 side chain; on linkers, the order of the positions; unused ones are H or OH. Square brackets hold non-standard residues; d marks the D form. Peptide text beside a SMILES is read from it. * marks the point of attachment. Fmoc = O=C(OCC1c2ccccc2-c2ccccc21)*; X1 = NCCc1cc(CN[*:1])ccc1C(=O)[*:2]

Key:
[1] = Determination of half life in PBS (cleavage of biodegradable linkers from model peptides); format: physicochemical; settings: linker X on N terminus of model peptide X-[…]; 1 mg/mL in PBS, 37° C.; read-out: t1/2 (h), cleavage of biodegradable linker (converted)
Procedure: Peptides GIVEQAA-NH2 (SEQ ID NO: 3) and […] (SEQ ID NO: 2), two mimics of the N-terminus section of insulin A chain, were used as model peptides to determine the half lives of various biogradable linkers linked to the N-terminus of the peptides through an amide bond. The model peptides were prepared with Fmoc chemistry, cleaved by TFA and purified by preparative RP-HPLC.
A model peptide capped with a biodegradable linker was dissolved at 1 mg/mL concentration in PBS and the solution was incubated at 37° C. in a water bath. Samples were collected for analysis at different time points (e.g., 8 h, 16 h, 24 h, 48 h, 72 h, 96 h, 120 h). […] The cleavage of a biodegradable linker was quenched by lowering pH to 2 by addition of 0.1% TFA solution. RP-HPLC was used to monitor the cleavage reactions and the cleavage rates were quantitatively studied by measuring the peak areas of model peptides when they are capped with biodegradable linkers and when linkers are released. […]
The rate of cleavage was determined for the model peptides capped with respective biodegradable linkers. The concentrations of the model peptides capped with biodegradable linkers and the released model peptides were determined by their respective peak areas. […] The cleavage half life of a peptide capped with a biodegradable linker was calculated by using the equation and the slope derived from this plot. […]

[2] = Determination of half life in serum (cleavage of biodegradable linkers from model peptide); format: in vitro ADME; settings: serum (100%); linker X on N terminus of model peptide X-G-dI-dV-dE-dQ-dA-dA; 100% serum, 37° C.; read-out: t1/2 (h), cleavage of biodegradable linker (converted)
Procedure: Model peptides X-G-dI-dV-dE-dQ-dA-dA (SEQ ID NO:4) capped with various biodegradable linkers were used in the assay. D amino acids were used to prevent other enzymatic cleavage of the model peptides. The peptides were dissolved in 100% serum and incubated at 37° C. Samples were collected for analysis at different time points (e.g., 8 h, 16 h, 24 h, 48 h, 72 h, 96 h, and 120 h).
The rate of cleavage was determined for the model peptides capped with respective biodegradable linkers. The concentrations of the model peptides capped with biodegradable linkers and the released model peptides were determined by their respective peak areas. The first order dissociation rate constant of a model peptide capped with a biodegradable linker was determined by plotting the logarithm of [starting model peptide capped with the biodegradable linker]/[remaining model peptide capped with the biodegradable linker] at various time intervals. The cleavage half life of a peptide capped with a biodegradable linker was calculated by using the equation and the slope derived from this plot.

[3] = test system: diabetic rats; test: Blood glucose change in streptozotocin-induced diabetic rats; format: in vivo, Wistar rats; settings: 40 nmol/kg daily
Procedure: 9-week-old male Wistar rats, average weight 240±10 g, were housed in polypropylene cages and maintained at constant temperature and humidity on a 12 hour light/dark cycle, and allowed access to food and water ad libitum. When diabetes was induced, rats were fasted for 48 hours and intraperitoneally injected with streptozotocin (60 mg/kg, dissolved in […] sodium citrate buffer, pH 4.5), then food was provided. Blood glucose was checked after three days. Animals with blood glucose above 250 mg/dl was considered diabetic, and the rats with blood glucose higher than 450 mg/dl were used in the experiment. Recombinant insulin (24 nmol/kg) was injected daily to maintain blood glucose no higher than 550 mg/dl.
The insulin hydrogels were prepared according to the methods in Examples 8 and 20, but the hydrogel used in this example was loaded only with insulin. The actual insulin content was calculated with the method in Example 18.
Rats showing hyperglycemia (400-450 mg/dl) were divided into 3 groups, each containing 8 rats. Rats in the first group were intraperitoneally injected saline (100 μL). Rats in the second group were intraperitoneal injected insulin detemir (40 nmol/kg) daily. Rats in the third group were Injected hydrogel (75 nmol/kg, calculated according to the actual amount of human insulin in the hydrogel). […]

`CC1NCc2cc(CN)ccc2C1=O` (stereo not drawn) showed a half-life at 1 mg/mL [1] of 264 h.
`CC[C@@H](C)[C@@H](NC(=O)CNC(=O)c1ccc(CNC(=O)OCC2c3ccccc3-c3ccccc32)cc1CCN)C(=O)N[C@@H](C(=O)N[C@H](CCC(=O)O)C(=O)N[C@H](CCC(N)=O)C(=O)N[C@H](C)C(=O)N[C@H](C)C(=O)O)C(C)C` (Fmoc-[X1]G[dI][dV][dE][dQ][dA][dA]-OH) gave a half-life [2] of 735 h.
With Insulin detemir the blood glucose lowering [3] was “cannot effectively lower blood glucose”.
